Reference: US6916461B2, “Metal complexes that contain perfluoroalkyl, process for their production and their use in NMR diagnosis” (Schering AG, priority 1996, dated 2005)
Read-outs that look alike come from different tables or passages of the source.

Columns and labels:
[1] = Blood elimination kinetics of contrast media in rats after one-time intravenous administration; assay type: in vivo, rats (Han Wistar, Schering SPF); details: for distribution volume Vss, MEAN / elimination half-life Tβ, MEAN / total clearance CLtot, MEAN: one-time i.v., Dy-DTPA 100 μmol Dy/kg (n=3), Example 1c 50 μmol Gd/kg (n=2), TOPFIT 2.0
Protocol: The blood elimination kinetics of contrast media was examined in rats (Han Wistar, Schering SPF, ≈250 g of body weight). For this purpose, after one-time intravenous administration (via a caudal vein) of the substances (dose: 50-100 μmol of Me per kg of body weight), the substance concentration in the blood (based on the Gd or Dy content) was determined over a period of up to 300 minutes p.i. with the aid of ICP-AES. The pharmacokinetic parameters: distribution volume (Vss), total clearance (CLtot) and elimination half-life (tβ) were calculated with a special computer program (TOPFIT 2.0; Thomae, Schering, Gödecke), whereby a one- or two-compartment distribution model was used as a basis.
FIG. 1 represents elimination from the blood (in % of the injected dose) of Dy-DTPA (dose: 100 μmol of Dy per kg of body weight, n=3) and of the fluorine compounds of Example 1c according to the invention (dose: 50 μmol of Gd per kg of body weight, n=2) after one-time intravenous administration of substances in rats (Han Wistar, Schering SPF, ≈250 g of body weight).
The Gd and Dy contents in the blood were determined with the aid of ICP-AES.

[2] = T1-relaxivity with Minispec pc 20 (20 MHz, 0.47T) at 37° C. in water and human plasma; assay type: physicochemical; details: for T1-relaxivity: 20 MHz; for R^1 [L/mmol * sec] at 0.47 T and 37° C. Plasma / R^1 [L/mmol * sec] at 0.47 T and 37° C. Water: T1-relaxivity, Minispec pc 20 (20 MHz, 0.47 T); for R^1 [L/mmol * sec] at 0.47 T and 37° C. Plasma: in human plasma; for R^1 [L/mmol * sec] at 0.47 T and 37° C. Water: in water
Protocol: The relaxivity of the following compounds was determined with a Minispec pc 20 (20 MHz, 0.47T) at 37° C. in water and human plasma and compared to that of Gd-DTPA-polylysine and Magnevist^(R) as comparison substances.

[3] = Lymph node visualization (MRT) after interstitial administration of the contrast medium; assay type: in vivo; details: guinea pigs, 120 minutes after s.c. 10 μmol of Gd/kg, T1-weighted spin echo (TR 400 ms, TE 15 ms)
Protocol: It was possible to confirm the special suitability of the compounds according to the invention in MR imaging studies in guinea pigs. Thus, 120 minutes after subcutaneous administration of 10 μmol/kg of body weight of a perfluorine-containing gadolinium complex (guinea pigs, hind paw, interdigital space) in T^1-weighted spin-echo images (TR 400 ms, TE 15 ms), a clear enhancement of the popliteal lymph nodes (270%) as well as the inguinal lymph nodes (104%) was observed (cf. Image 1).

[4] = Elimination of the contrast medium after i.p. administration (retention of metal in liver and remainder of the body); assay type: in vivo; details: rats, i.p. 100 μmol of total gadolinium/kg, 14 days p.i.
Text: After administration of a perfluorinated gadolinium complex according to the invention (100 μmol of total gadolinium/kg of body weight) in the intraperitoneal space of rats, the retention of metal in the liver as well as in the remainder of the body was examined 14 days after administration. In this test, fluorine-containing compound 2c) was used. After 14 days p.i., the gadolinium concentration was 0.22% of the administered dose in the liver and 1.1% of the administered dose in the remainder of the body.

[5] = rat, in vivo, iv; cited from earlier work
[6] = T1-relaxivity, from Invest. Radiol. 1992, 346, cited from earlier work

Compound	T1-relaxivity ([2]; human plasma) [L/mmol/s]	T1-relaxivity ([2]; water) [L/mmol/s]	R^1 [L/mmol * sec] at 0.47 T and 37° C. Plasma [2] [L/mmol/s]	R^1 [L/mmol * sec] at 0.47 T and 37° C. Water [2] [L/mmol/s]	also measured
O=C([O-])CN(CCN(CC(=O)[O-])CC(=O)[O-])CCN(CC(=O)[O-])CC(=O)[O-].[Dy+3].[Na+].[Na+] [Dy-DTPA, reference compound]	–	–	–	–	distribution volume Vss, MEAN [1]: 0.17 L/kg; elimination half-life Tβ, MEAN [1]: 14.98 min; total clearance CLtot, MEAN [1]: 9.27 mL/min/kg
CCN(CC(=O)NCC(O)CN1CCN(CC(=O)[O-])CCN(CC(=O)[O-])CCN(CC(=O)[O-])CC1)S(=O)(=O)C(F)(F)C(F)(F)C(F)(F)C(F)(F)C(F)(F)C(F)(F)C(F)(F)C(F)(F)F.[Gd+3] (stereo not drawn) [Example 1c, Gadolinium Complex of 10-[2-hydroxy-4-aza-5-oxo-7aza-7-(perfluorooctylsulfonyl)-nonyl]-1,4,7-tris(carboxymethyl)-1,4,7,10-tetraazacyclododecane]	49	41	49	41	distribution volume in comparison to Dy-DTPA ([1]; i.v.): smaller distribution volume; elimination from the blood in comparison to Dy-DTPA ([1]; i.v.): considerably slower elimination from the blood; distribution volume Vss, MEAN [1]: 0.14 L/kg; elimination half-life Tβ, MEAN [1]: 95.01 min; total clearance CLtot, MEAN [1]: 1.07 mL/min/kg
CCN(CC(=O)NCC(O)CN1CCN(CC(=O)[O-])CCN(CC(=O)[O-])CCN(CC(=O)[O-])CC1)S(=O)(=O)C(F)(F)C(F)(F)C(F)(F)C(F)(F)C(F)(F)C(F)(F)C(F)(F)C(F)(F)F.[Mn+2].[Na+] (stereo not drawn) [Example 1e, Manganese complex of 10-[2-hydroxy-4-aza-5-oxo-7-aza-7-(perfluorooctylsulfonyl)-nonyl]-1,4,7-tris(carboxymethyl)-1,4,7,10-tetraazacyclododecane (as sodium salt)]	4.2	2.7	–	–	–
O=C([O-])CN1CCN(CC(=O)[O-])CCN(CC(O)CNC(=O)COCCC(F)(F)C(F)(F)C(F)(F)C(F)(F)C(F)(F)C(F)(F)C(F)(F)C(F)(F)F)CCN(CC(=O)[O-])CC1.[Gd+3] (stereo not drawn) [Example 2c, Gadolinium complex of 10-[2-hydroxy-4-aza-5-oxo-7-oxa-10,10,11,11,12,12,13,13,14,14,15,15,16,16,17,17,17-heptadecafluoroheptadecyl]-1,4,7-tris(carboxymethyl)-1,4,7,10-tetraazacyclododecane]	33	19	33	19	signal in the popliteal and inguinal lymph nodes of the injected side vs non-injected side or precontrast image [3]: strong signal rise; gadolinium concentration in the liver [4]: 0.22 % of the administered dose; gadolinium concentration in the remainder of the body [4]: 1.1 % of the administered dose
O=C([O-])CN1CCN(CC(=O)[O-])CCN(CC(O)COCCC(F)(F)C(F)(F)C(F)(F)C(F)(F)C(F)(F)C(F)(F)C(F)(F)C(F)(F)F)CCN(CC(=O)[O-])CC1.[Gd+3] (stereo not drawn) [Example 3c, Gadolinium complex of 10-[-2hydroxy-4-oxa-1H,1H,2H,3H,3H,5H,5H,6H,6H-perfluorotetradecyl]-1,4,7-tris(carboxymethyl)-1,4,7,10-tetraazacyclododecane]	27.5	15.2	27.5	15.2	–
CNC[C@H](O)[C@@H](O)[C@H](O)[C@H](O)CO.CNC[C@H](O)[C@@H](O)[C@H](O)[C@H](O)CO.O=C([O-])CN(CCN(CC(=O)[O-])CC(=O)O)CCN(CC(=O)[O-])CC(=O)O.[Gd+3] [Magnevist, reference compound]	–	–	4.8	3.8	–
albumin-Gd-DTPA	–	–	–	–	concentration in the liver tissue [5]: ~30 % of the dose
polylysine-Gd-DTPA	–	–	–	–	R^1 [L/mmol * sec] at 0.47 T and 37° C. Plasma ([6]; in plasma): 16.8 L/mmol/s; R^1 [L/mmol * sec] at 0.47 T and 37° C. Water ([6]; in water): 13.1 L/mmol/s
